Measurements as given in ChEMBL document CHEMBL1137135 (Bioorg Med Chem Lett, 2004).

Tests used:
[1] = organism: Rattus norvegicus; assay: In vitro anticoagulant activity of compound was determined in rat; assay type: functional
[2] = In vitro inhibitory activity against Factor Xa
[3] = Binding affinity of compound towards Factor Xa
[4] = Bioavailability in rat; assay type: ADME, organism-based; settings: in vivo
[5] = Half-life of compound was determined in rat; assay type: ADME; settings: in vivo
[6] = Plasma clearance of compound was determined in rat; assay type: ADME, organism-based
[7] = Vz of compound was determined in rat; assay type: ADME, organism-based; settings: in vivo, read-out: Vz

IC50 [2] [nM] | Ki [3] [nM] | bioavailability [4] [%] | half-life [5] [h] | clearance [6] [mL/min/kg] | Vd [7] [L/kg] | Compound | TG 2X lag [1] [µM] | 2X PT [1] [µM]
12 | 7.55 | 2.67 | 1.77 | 35 | 5.4 | NS(=O)(=O)c1ccccc1-c1ccc(C(=O)NCCC(=O)Nc2ccc(Br)cn2)cc1 | 14 | 
1.7 | 0.4 | 25.9 | 1.18 | 178 | 14 | CN(C)Cc1ccccc1-c1ccc(C(=O)N[C@H](CC(=O)Nc2ccc(Cl)cn2)C(=O)N2CCCCC2)cc1 | 1 | 1.74
